In patent publication US12258336B2, “Preparation of seimicarbazide-sensitive amine oxidase inhibitor and use thereof” (SHANGHAI ENNOVABIO PHARMACEUTICALS CO., LTD., priority 2018, dated 2025):

What was measured:
rat SSAO protein = molecular target: T1, rat SSAO protein (Rattus norvegicus, UniProt O08590); test: In vitro inhibitory activity on SSAO/VAP-1 (MAO-Glo assay), rat; type: biochemical
T1 construct: Eli Lilly (provided, not a catalogue product)
T1 sequence (O08590 1-763): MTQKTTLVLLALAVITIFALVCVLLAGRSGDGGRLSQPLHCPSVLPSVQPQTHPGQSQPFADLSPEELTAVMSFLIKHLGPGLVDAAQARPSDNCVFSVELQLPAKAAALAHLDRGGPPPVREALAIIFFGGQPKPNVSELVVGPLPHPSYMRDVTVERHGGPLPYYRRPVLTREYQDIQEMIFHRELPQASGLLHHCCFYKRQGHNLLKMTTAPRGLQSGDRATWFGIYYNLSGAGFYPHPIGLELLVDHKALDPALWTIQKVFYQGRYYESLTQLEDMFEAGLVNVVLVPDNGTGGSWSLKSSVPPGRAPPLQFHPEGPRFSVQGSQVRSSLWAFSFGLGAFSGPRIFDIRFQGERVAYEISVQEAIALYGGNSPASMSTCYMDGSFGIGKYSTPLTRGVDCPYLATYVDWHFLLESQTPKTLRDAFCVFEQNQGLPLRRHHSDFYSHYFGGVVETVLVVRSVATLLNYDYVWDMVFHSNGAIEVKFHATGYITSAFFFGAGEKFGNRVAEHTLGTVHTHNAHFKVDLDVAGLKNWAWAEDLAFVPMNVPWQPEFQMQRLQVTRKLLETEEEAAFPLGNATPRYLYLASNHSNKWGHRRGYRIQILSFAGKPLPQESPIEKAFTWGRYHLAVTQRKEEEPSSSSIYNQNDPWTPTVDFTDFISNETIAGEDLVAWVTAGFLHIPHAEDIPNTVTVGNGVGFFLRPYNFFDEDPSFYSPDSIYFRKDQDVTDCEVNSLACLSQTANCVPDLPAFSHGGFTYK
Procedure: (§1) This assay was used to evaluate the in vitro inhibitory activity of the compounds on SSAO/VAP-1 of different species. Recombinant human SSAO protein, mouse SSAO protein or rat SSAO protein (provided by Eli Lilly) were used. The enzyme activity detection kit, MAO-Glo Assay kit (V1402) was purchased from Promega. Enzyme reaction buffer (50 mM HEPES, 120 mM NaCl, 5 mM KCl, 2 mM CaCl2, 1.4 mM MgCl2, 0.001% Tween-20, pH7.4) was prepared. The test compound was dissolved in DMSO and diluted by 3-fold concentration in gradient. The final concentration of test compound in a 10 μL reaction system was 1 μM to 0.05 nM when SSAO was detected. The content of DMSO in the detection reaction was 1%. After the solution of test compound in DMSO was diluted in the enzyme reaction buffer at a volume ratio of 1:25, 2.5 μL of which was added to each well of detection plate, two replicates for each concentration. 5 μL of SSAO protein diluted in the enzyme reaction buffer was added to each well, the final concentration of which was 10 nM to 80 nM in 10 μL reaction system. The mixture was incubated at room temperature for 10 minutes. 2.5 μL of the reaction substrate diluted in the enzyme reaction buffer was added to each well, the final concentration of which was 10 μM in 10 μL reaction system. After the mixture was reacted at room temperature for 120 minutes, 10 μL of detection reagent was added to each well. The reaction solution was incubated for 20 minutes at room temperature, and the plate was read with Synergy Neo 2 for detection. The value was converted into inhibition rate by the following formula: Inhibition rate=(Signalpositive−Signaltest)/(Signalpositive−Signalnegative)×100%
(§2) Signalpositive was positive control without test compound. Signalnegative was negative control without test compound and SSAO enzyme, and Signaltest was detection value of each compound at different concentrations. IC50 value was calculated by using 4 parameter curve fitting.

mouse SSAO protein = molecular target: T2, mouse SSAO protein (Mus musculus, UniProt O70423); test: In vitro inhibitory activity on SSAO/VAP-1 (MAO-Glo assay), mouse; type: biochemical
T2 construct: Eli Lilly (provided, not a catalogue product)
T2 sequence (O70423 1-765): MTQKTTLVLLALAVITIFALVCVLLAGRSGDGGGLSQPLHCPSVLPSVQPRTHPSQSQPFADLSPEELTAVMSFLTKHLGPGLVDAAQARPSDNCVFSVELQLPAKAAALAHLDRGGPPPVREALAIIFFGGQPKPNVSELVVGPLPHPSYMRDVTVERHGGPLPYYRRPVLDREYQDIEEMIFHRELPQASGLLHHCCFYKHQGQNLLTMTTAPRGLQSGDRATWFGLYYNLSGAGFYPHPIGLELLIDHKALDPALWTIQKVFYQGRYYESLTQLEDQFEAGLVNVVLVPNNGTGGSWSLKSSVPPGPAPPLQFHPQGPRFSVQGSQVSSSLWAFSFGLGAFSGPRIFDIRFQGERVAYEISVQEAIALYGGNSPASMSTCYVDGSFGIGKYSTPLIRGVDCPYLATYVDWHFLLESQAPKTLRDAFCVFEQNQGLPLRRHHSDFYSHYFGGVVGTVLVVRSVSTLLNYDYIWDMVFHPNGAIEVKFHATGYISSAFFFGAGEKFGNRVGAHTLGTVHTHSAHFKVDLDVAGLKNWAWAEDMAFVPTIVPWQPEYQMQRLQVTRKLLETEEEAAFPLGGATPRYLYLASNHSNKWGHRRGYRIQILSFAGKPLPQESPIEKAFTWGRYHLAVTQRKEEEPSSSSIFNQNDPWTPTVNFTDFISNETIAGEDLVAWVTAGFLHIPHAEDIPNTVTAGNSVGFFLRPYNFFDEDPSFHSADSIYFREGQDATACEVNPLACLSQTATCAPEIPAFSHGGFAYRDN
Procedure: as §1, §2

[1] = system: LPS-induced inflammatory disease model in rats; test: LPS-induced ocular inflammation model: protein concentration and cell number in aqueous humor; type: in vivo; conditions: rat, LPS footpad injection, 6 mg/kg oral 1 h before induction, 24 hours after induction, mean±SEM
Procedure: 22 rats (7-8 weeks, 220-250 g) were divided into 3 groups, which were control group (6), model group (8) and compound treated group (8). For the model group and compound treated group, ocular inflammation was induced by a single injection of 8 μg/100 μL lipopolysaccharide (Sigma-Aldrich-L2880) into the footpad. The rats were grouped according to their body weight 1 h before induction. Example 4 compound (6 mg/kg, 10 mL/kg) or vehicle (10 mL/kg) were orally administered respectively. 24 hours after induction, the anterior aqueous humor was collected and the eyeballs were removed to dissect the retina. Ocular inflammation was quantitatively evaluated by measuring the protein concentration and cell number in the aqueous humor. qPCR method was used to verify changes in the expression of ocular retinal inflammation-related genes.
10 μL of aqueous humor was diluted in 40 μL of PBS and mixed, then 25 μL of mixture was mixed with 75 μL of PBS, and centrifuged at 300 g for 5 min at 4° C. 55 μL of supernatant was aspirated carefully and the protein concentration was determined according to the method described in the BCA Protein Assay Kit (Pierce-23227); after the remaining sample was resuspended, 40 μL of cell suspension was added into 100 μL of 1% FBS/PBS to analyze and count live cells using NovoCyte 3130 flow cytometry after excluding cell debris.

Compound	IC50 (rat SSAO protein) [nM]	IC50 (mouse SSAO protein) [nM]	cell number in aqueous humor ([1]; model group 48.28±21.46)	protein concentration in aqueous humor ([1]; model group 9730.04±1232.30) [µg/mL]
COC1CC2CC1CN2c1ncc(OC/C(=C/F)CN)cn1 (centres unmarked) [Example 2]	< 100	< 100		
NC/C(=C\F)COc1cnc(N2CCN(C3COC3)CC2)nc1 [Example 4, (E)-3-fluoro-2-(((2-(4-(oxbutan-3-yl)piperazin-1-yl)pyrimidin-5-yl)oxo)methyl)prop-2-en-1-amine]	< 100	< 100	5.07±0.80 *10^4 cell/mL	7275.44 ± 622.66
COC1CC2CCC(C1)N2c1ncc(OC/C(=C/F)CN)cn1 (centres unmarked) [Example 12]	< 100	< 100		
